Literature values in patent publication US12419869B2, “Methods of treating multiple sclerosis” (Vanda Pharmaceuticals Inc., priority 2021, dated 2025).

Test system: adult subjects with relapsing MS
Settings: comparison values; cited from earlier work

| Compound | ECG HR effect: time of nadir post-dose (other S1P modulators) [h] |
| --- | --- |
| CCCCCCCCc1ccc(CCC(N)(CO)CO)cc1 [Fingolimod] | ~6 |
| CCc1cc(/C(C)=N/OCc2ccc(C3CCCCC3)c(C(F)(F)F)c2)ccc1CN1CC(C(=O)O)C1 [Siponimod] | 3 to 4 |
